The text below walks through data of patent US20240016787A1, “METHODS FOR TREATMENT OF CANCER AND PHAGOCYTOSIS-DEFICIENCY RELATED DISEASES” (RDiscovery, LLC, priority 2020, published 2024).

The test system of assay [1] is mdx mouse. Briefly: mdx mouse model of Duchenne muscular dystrophy (DMD). The note with it: mdx mice, vs MDX-Vehicle. The class given is in vivo. The protocol: The effect of cilnidipine and the cilnidipine derivative NS4-043 in the mdx mouse model of Duchenne muscular dystrophy (DMD) model was evaluated. The mdx mouse has a point mutation in its DMD gene, changing the amino acid coding for a glutamine to a stop codon, which causes the muscle cells to produce a small, nonfunctional dystrophin protein.
Animals were dosed once daily with vehicle, idebenone or cilnidipine on study days: 0 to 20.
Mice were evaluated by a rotarod test on study days 19 and 20. Body weight was measured throughout the study period. […] (CK) and […] (LDH), two biomarkers of DMD, were measured on day 21.

The test system of assay [2] is J774.1 mouse macrophage cell line. Briefly: In vitro phagocytosis of PE-labeled polystyrene beads by macrophages (flow cytometry). The class given is cell-based. The note with it: 0.3 μM, 1 μM, or 3 μM for 20 hours; beads 2.5 hours; vs DMSO vehicle. The protocol:
The effect of cilnidipine on phagocytosis by macrophages was evaluated in vitro using the J774.1 mouse macrophage cell line. Cells were seeded at 2×10^5 cells/well/200 μL of a 48 well plate and cultured for 24 hours in DMEM medium containing 10% FBS and antibiotics at 37° C. under 5% CO2. Cells were washed once and then incubated with cilnidipine at concentrations 0.3 μM, 1 μM, or 3 μM, or DMSO (vehicle) for 20 hours.
The level of phagocytosis was evaluated by adding 10 μL of DMEM medium containing 4×10^6 PE-labeled polystyrene beads (Fluoresbrite® Polychromatic Red Microspheres 2.0 μm) to cells and culturing them for 2.5 hours. Cells were then washed 3 times with PBS and collected. The level of phagocytic activity was assessed by flow cytometry, measuring the amount of fluorescent signal derived from the PE-labelled beads that were taken up by the cells, with cells treated with 0.1% DMSO used as negative control. The proportions of cells engulfing 1 or more, 2 or more, 3 or more, and 4 or more particles were measured.
(In general: A flow cytometer gives signals particle by particle.)

In assay [3] the test system is MC38 cells, a murine colon adenocarcinoma cell line. In words: In vivo anti-tumor effect in MC38 tumor-bearing C57BL/6 mice. The settings on record: i.t. on days 10 and 14 after tumor inoculation; vs control mice. Also on record: species or system mouse. The protocol: The in vivo anti-tumor effect of cilnidipine is assessed in MC38 tumor-bearing C57BL/6 mice. Five or seven week old C57BL/6 mice are maintained under specific pathogen-free (SPF) conditions. Mice are injected subcutaneously with 5×10^5 MC38 cells, a murine colon adenocarcinoma cell line, and treated i.t. with cilnidipine on days 10 and 14 after tumor inoculation. Tumor volume is measured at the various time points.

In assay [4] the test system is Capan-1 human pancreatic ductal adenocarcinoma cells. Briefly: Subcutaneous Capan-1 pancreatic cancer xenograft model in female BALB/c nude mice. The class given is in vivo. The method, then: A study of the in vivo therapeutic efficacy of cilnidipine as a single agent or in combination with gemcitabine in the treatment of the subcutaneous Capan-1 pancreatic cancer xenograft model in female BALB/c nude mice was performed.
Female BALB/c nude mice 7-9 weeks of age were used in the study.
Capan-1 human pancreatic ductal adenocarcinoma cells were cultured in IMEM medium with 20% FBS at 37° C. and 5% CO2 in air atmosphere.
Each mouse was inoculated subcutaneously in the right upper flank region with tumor cells (5×10^6 cells) in 0.1 ml of PBS with Matrigel (1:1) for tumor development.
Randomization was started when the mean tumor size reached approximately 254.27 mm^3. A total of 48 mice were enrolled in the study and randomly allocated to the six study groups, with eight mice per group. Randomization was performed based on “Matched distribution” method (Study Director™ software, version 3.1.399.19). The date of randomization was denoted as day 0.
After tumor inoculation, the animals were checked daily for morbidity and mortality. During routine monitoring, the animals were checked for any effects of tumor growth and treatments on behavior such as mobility, food and water consumption, body weight gain/loss (body weights were measured twice per week after randomization), eye/hair matting and any other abnormalities. Mortality and observed clinical signs were recorded for individual animals in detail.
Tumor volumes were measured twice per week after randomization in two dimensions using a caliper, and the volume was expressed in mm^3 using the formula: V=(L×W×W)/2, where V is tumor volume, L is tumor length (the longest tumor dimension) and W is tumor width (the longest tumor dimension perpendicular to L). Dosing as well as tumor and body weight measurements were conducted in a Laminar Flow Cabinet. Body weights and tumor volumes were measured by using Study Director™ software (version 3.1.399.19).
The vehicle used for cilnidipine was 5% DMSO and corn oil. The vehicle used for gemcitabine was saline. Dosing volume was adjusted for body weight (dosing volume=5/10 μL/g). Treatments were initiated on day 0 following randomization.
The study was planned so that (1) mice showing a body weight loss (BWL)>20% after one measurement would be sacrificed, (2) mice showing BWL>15% after one measurement would be given a dosing holiday in a separate cage alone with daily monitoring for 72 hours, while other mice in the same group would receive dosing as scheduled, with treatment of the isolated mouse resuming when the BWL had recovered to BWL<10%, and (3) mice showing a BWL>10% would receive supplemental gel. BWL was calculated based on the BW on the first day of treatment.
The study endpoint was tumor growth inhibition (TGI). […] TGI is expressed as: TGI (%)=100×(1−T/C). […]

Assay [5] concerns pancreatic and melanoma cancer cell lines. In words: Anti-proliferative effects on cancer cell lines in vitro. The settings on record: AsPC-1, Capan-1, KP4, MIA PaCa-2, BxPC-3, A375, SK-MEL-28, MeWo. Type of assay: cell-based. The method, then:
The effect of cilnidipine on cell proliferation of eight cancer cell lines is evaluated. Five pancreatic cancer cell lines are included, four containing KRAS mutations (AsPC-1 (G12D), Capan-1 (G12V), KP4 (M188V, G12D) and MIA PaCa-2 (G12C)), and one pancreatic cancer cell line with wild type KRAS, BxPC-3, in addition to three melanoma cell lines, two of which contain B-Raf mutations: A375 (V600E) and SK-MEL-28 (V600E), and one melanoma cell line with wild type B-Raf, MeWo.

The mark [6] stands for this setting: 10 mg/kg once daily days 0 to 20, measured day 21.
The mark [7] stands for this setting: 200 mg/kg once daily days 0 to 20, measured day 21.

For the compound `COCCOC(=O)C1=C(C)NC(C)=C(C(=O)OC/C=C/c2ccccc2)C1c1cccc([N+](=O)[O-])c1` (stereo not drawn) [Cilnidipine], in assay [1] (setting [6]), the “plasma CK” value is on record as “significantly suppressed plasma CK” and the “plasma LDH” value is reported as “significantly decreased plasma LDH”. Further, the “phagocytic activity of macrophages” value in assay [2] is on record as “enhanced phagocytic activity of macrophages in a dose dependent manner”. The tumor growth entry in assay [3] is “reduces tumor growth as compared to control mice”. Further, in assay [4] (Group 4: cilnidipine 10 mg/kg p.o. QD × 21 days), the “Tumor Growth Inhibition (TGI) on Day 20, TGI vs G01” value (shortened to “Tumor Growth Inhibition … vs G01”) amounted to 9.014%. Besides, the “Tumor Growth Inhibition … vs G01” value in assay [4] (Group 4: cilnidipine 10 mg/kg p.o. QD × 21 days, listed as cilnidipine) is recorded as 9.01%. For the same compound, the “anti-proliferative effect on cancer cell lines” value in assay [5] is “has an anti-proliferative effect on the cell lines”.
With `Nc1ccn([C@@H]2O[C@H](CO)[C@@H](O)C2(F)F)c(=O)n1` [Gemcitabine], the “Tumor Growth Inhibition … vs G01” value amounted to 15.273% in assay [4] (Group 2: gemcitabine 30 mg/kg i.p. Q3D × 4) and 30.717% in assay [4] (Group 3: gemcitabine 100 mg/kg i.p. Q3D × 4).
Consider `COC1=C(OC)C(=O)C(CCCCCCCCCCO)=C(C)C1=O` [Idebenone], for which, in assay [1] (setting [7]), the “plasma CK” value is reported as “but not idebenone, significantly suppressed plasma CK” and the “plasma LDH” value is reported as “significantly decreased plasma LDH”.
With `COCCOC(=O)C1=C(C)NC(C)=C(C(=O)OC/C=C/c2ccncc2)C1c1ccccc1[N+](=O)[O-]` (stereo not drawn) [NS4-043], the “plasma LDH” value in assay [1] (setting [6]) is “did not significantly decrease plasma LDH”.
